{"source": "ChEMBL document CHEMBL3832074", "about": "“DailyMed|setid=ad6a2b73-29d4-4ced-ba42-4c2ad1c5a1af | ENTACAPONE - entacapone tablet, film coated|Sun Pharma Global FZE”", "assay_type_in_all_cases": "ADME, organism-based", "key": {"Homo sapiens [1]": {"test_system": "Homo sapiens", "test": "Pharmcokinetic parameters for Enctacpone following oral administration of Entacapone.", "conditions": "in vivo, dosed compound id 40, dosed compound name ENTACAPONE; for Excretion: po"}, "[2]": {"test": "(§1) Pharmacokinetic parameters for Enctacpone after single oral administartion of 200 and 800 mg Entacapone tablets to volunteers.", "parameters": "dose 200 mg, route oral", "conditions": "human, in vivo, 200 mg, dosed compound id 40, dosed compound name ENTACAPONE, regimen Single dose, tissue Plasma"}, "Homo sapiens [3]": {"test_system": "Homo sapiens", "test": "as §1", "parameters": "dose 200 mg, route oral", "conditions": "in vivo, dosed compound id 40, dosed compound name ENTACAPONE, gender male and female, regimen Single dose, route oral, tissue Plasma"}}, "data": [{"smiles": "CCN(CC)C(=O)/C(C#N)=C/c1cc(O)c(O)c([N+](=O)[O-])c1", "note": "[ENTACAPONE]", "values": [{"measurement": "CL", "setting": "Homo sapiens [1]; route iv, tissue Plasma", "value": 850, "unit": "mL/min"}, {"measurement": "Excretion", "setting": "Homo sapiens [1]; tissue Feces", "value": 90, "unit": "%"}, {"measurement": "Excretion", "setting": "Homo sapiens [1]; tissue Urine", "value": 10, "unit": "%"}, {"measurement": "Cmax", "setting": "[2]", "value": 1200, "unit": "ng/mL"}, {"measurement": "Inhibition", "setting": "Homo sapiens [3]; at 200 mg", "value": 65, "unit": "%"}, {"measurement": "Inhibition", "setting": "Homo sapiens [3]; at 800 mg", "value": 82, "unit": "%"}]}]}
